Measured values from ChEMBL document CHEMBL5380857, “Discovery of Potent, Selective, and Orally Bioavailable Small-Molecule Inhibitors of CDK8 for the Treatment of Cancer” (J Med Chem, 2023).
Calls of active or inactive are those of the source. No cut-off for these calls is given here.

What was measured:
Cytochrome P450 2C19 = Cytochrome P450 2C19 (Homo sapiens, UniProt P33261); experiment: Inhibition of CYP2C19 in human liver microsomes using S-mephenytoin as substrate assessed as reduction in substrate hydroxylation incubated for 10 mins in presence of NADPH by LC-MS/MS analysis; assay type: ADME, Microsome
Chain of Cytochrome P450 2C19 (P33261 whole entry): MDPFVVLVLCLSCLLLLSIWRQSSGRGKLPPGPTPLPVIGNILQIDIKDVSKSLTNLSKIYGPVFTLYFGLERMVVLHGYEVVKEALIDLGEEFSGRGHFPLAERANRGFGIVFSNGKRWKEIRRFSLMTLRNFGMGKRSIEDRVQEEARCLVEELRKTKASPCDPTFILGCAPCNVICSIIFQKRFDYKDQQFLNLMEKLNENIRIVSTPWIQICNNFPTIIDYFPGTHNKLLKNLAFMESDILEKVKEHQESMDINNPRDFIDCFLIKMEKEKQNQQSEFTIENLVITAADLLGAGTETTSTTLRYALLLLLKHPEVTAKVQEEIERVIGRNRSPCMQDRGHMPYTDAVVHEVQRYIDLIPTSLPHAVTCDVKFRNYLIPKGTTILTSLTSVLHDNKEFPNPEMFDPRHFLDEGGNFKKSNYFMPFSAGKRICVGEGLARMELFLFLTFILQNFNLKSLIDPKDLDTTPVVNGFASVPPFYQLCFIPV

[1] = Clearance in Sprague-Dawley rat assessed as liver blood flow at 5 mg/kg, po or 1 mg/kg, iv administered as single dose and measured for 24 hrs by LC-MS/MS analysis; assay type: ADME, organism-based; conditions: in vivo
[2] = molecular target: Glycogen synthase kinase-3 alpha (Homo sapiens, UniProt P49840); experiment: Binding affinity to GSK3A (unknown origin) assessed as dissociation constant by competitive binding assay
Chain of Glycogen synthase kinase-3 alpha (P49840 whole entry): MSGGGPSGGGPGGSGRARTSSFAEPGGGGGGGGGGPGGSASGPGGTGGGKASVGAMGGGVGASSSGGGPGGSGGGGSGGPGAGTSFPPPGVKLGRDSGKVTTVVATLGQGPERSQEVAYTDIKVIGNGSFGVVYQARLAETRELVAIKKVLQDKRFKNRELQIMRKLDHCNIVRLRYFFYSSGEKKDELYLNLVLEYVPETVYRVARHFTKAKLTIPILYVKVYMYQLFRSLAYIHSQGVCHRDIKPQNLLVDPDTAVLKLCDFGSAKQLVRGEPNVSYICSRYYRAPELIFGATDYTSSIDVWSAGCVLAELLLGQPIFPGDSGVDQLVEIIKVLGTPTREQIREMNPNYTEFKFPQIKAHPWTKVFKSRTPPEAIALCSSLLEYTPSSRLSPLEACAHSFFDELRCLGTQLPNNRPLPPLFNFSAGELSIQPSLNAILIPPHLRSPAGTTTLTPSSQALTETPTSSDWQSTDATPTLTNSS

[3] = molecular target: Dual specificity protein kinase CLK2 (Homo sapiens, UniProt P49760); experiment: Binding affinity to CLK2 (unknown origin) assessed as dissociation constant by competitive binding assay
Chain of Dual specificity protein kinase CLK2 (P49760 whole entry): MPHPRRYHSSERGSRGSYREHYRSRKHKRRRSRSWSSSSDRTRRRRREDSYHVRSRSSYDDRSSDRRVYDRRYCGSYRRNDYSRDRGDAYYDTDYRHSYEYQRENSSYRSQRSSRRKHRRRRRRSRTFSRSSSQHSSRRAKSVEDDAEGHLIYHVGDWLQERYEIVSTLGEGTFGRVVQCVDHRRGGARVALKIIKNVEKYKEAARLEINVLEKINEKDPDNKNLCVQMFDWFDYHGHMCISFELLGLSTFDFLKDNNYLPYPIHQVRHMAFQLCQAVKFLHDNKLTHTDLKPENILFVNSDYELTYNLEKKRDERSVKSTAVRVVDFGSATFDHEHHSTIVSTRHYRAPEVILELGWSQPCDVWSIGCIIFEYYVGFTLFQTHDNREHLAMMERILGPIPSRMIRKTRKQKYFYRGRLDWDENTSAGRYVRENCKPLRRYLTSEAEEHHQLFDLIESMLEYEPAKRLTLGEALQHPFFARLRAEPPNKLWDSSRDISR

[4] = Clearance in CD-1 mouse assessed as liver blood flow at 5 mg/kg, po or 1 mg/kg, iv administered as single dose and measured for 24 hrs by LC-MS/MS analysis; assay type: ADME, organism-based; conditions: in vivo
MV4-11 [5] = experiment: Antitumor activity against human MV4-11 cells xenografted in BALB/c nude mouse assessed as tumor growth inhibition at 3 mg/kg, po bid administered by gavage for 17 days and measured 3 times per week by caliper method relative to control; assay type: functional; conditions: MV4-11, 408 h, time 17 day, read-out: TGI
[6] = molecular target: T1, Signal transducer and activator of transcription 1-alpha/beta (Homo sapiens) (UniProt P42224); experiment: Inhibition of STAT1 phosphorylation at S727 residue in human MV4-11 cells incubated for 24 hrs by Western blot analysis; assay type: cell-based; conditions: dose 0.001-1 µM
T1 sequence (whole entry): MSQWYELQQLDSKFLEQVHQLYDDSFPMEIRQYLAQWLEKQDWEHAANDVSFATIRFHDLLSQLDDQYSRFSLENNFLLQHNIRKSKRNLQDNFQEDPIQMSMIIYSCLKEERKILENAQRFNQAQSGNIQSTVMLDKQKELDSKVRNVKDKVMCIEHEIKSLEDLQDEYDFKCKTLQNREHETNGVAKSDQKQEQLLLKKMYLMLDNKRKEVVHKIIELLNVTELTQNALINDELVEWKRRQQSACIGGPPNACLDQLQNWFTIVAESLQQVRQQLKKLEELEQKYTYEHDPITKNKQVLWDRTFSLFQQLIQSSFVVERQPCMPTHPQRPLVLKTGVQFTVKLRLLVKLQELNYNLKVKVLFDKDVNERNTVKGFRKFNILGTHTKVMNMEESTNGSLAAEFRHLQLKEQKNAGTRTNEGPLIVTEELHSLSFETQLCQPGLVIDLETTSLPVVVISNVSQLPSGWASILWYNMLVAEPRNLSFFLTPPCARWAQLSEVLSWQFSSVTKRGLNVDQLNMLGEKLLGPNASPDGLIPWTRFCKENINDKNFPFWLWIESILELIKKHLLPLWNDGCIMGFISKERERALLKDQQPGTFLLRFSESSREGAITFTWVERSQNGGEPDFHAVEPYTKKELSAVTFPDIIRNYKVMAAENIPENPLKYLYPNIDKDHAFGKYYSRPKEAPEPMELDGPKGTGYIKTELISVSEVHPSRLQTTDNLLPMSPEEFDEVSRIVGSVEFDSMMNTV

[7] = Antitumor activity against mouse LL2 cells implanted in C57BL/6J syngeneic mouse model assessed as tumor growth inhibition at 1 mg/kg, po administered via gavage twice daily for 14 days in presence of mPDL1 antibody administered twice per week and measured 3 times a week by caliper method relative to control; assay type: functional; conditions: Lewis lung carcinoma, 336 h, time 14 day, read-out: TGI
MV4-11 [8] = experiment: Induction of cell cycle arrest in human MV4-11 cells assessed as reduction in accumulation of cells at S phase at 0.01 to 1 uM incubated for 48 hrs; assay type: functional, cell-based; conditions: dose 0.01-1 µM
MV4-11 [9] = experiment: Antitumor activity against human MV4-11 cells xenografted in BALB/c nude mouse assessed as inhibition of tumor growth administered orally by gavage twice per day for 17 days and measured 3 times per week by caliper method; assay type: functional, cell-based; conditions: dose 1-10 mg/kg, route po, time 17.0 day
[10] = molecular target: Phosphatidylinositol 3-kinase catalytic subunit type 3 (Homo sapiens, UniProt Q8NEB9); experiment: Binding affinity to VPS34 (unknown origin) assessed as dissociation constant by competitive binding assay
Chain of Phosphatidylinositol 3-kinase catalytic subunit type 3 (Q8NEB9 whole entry): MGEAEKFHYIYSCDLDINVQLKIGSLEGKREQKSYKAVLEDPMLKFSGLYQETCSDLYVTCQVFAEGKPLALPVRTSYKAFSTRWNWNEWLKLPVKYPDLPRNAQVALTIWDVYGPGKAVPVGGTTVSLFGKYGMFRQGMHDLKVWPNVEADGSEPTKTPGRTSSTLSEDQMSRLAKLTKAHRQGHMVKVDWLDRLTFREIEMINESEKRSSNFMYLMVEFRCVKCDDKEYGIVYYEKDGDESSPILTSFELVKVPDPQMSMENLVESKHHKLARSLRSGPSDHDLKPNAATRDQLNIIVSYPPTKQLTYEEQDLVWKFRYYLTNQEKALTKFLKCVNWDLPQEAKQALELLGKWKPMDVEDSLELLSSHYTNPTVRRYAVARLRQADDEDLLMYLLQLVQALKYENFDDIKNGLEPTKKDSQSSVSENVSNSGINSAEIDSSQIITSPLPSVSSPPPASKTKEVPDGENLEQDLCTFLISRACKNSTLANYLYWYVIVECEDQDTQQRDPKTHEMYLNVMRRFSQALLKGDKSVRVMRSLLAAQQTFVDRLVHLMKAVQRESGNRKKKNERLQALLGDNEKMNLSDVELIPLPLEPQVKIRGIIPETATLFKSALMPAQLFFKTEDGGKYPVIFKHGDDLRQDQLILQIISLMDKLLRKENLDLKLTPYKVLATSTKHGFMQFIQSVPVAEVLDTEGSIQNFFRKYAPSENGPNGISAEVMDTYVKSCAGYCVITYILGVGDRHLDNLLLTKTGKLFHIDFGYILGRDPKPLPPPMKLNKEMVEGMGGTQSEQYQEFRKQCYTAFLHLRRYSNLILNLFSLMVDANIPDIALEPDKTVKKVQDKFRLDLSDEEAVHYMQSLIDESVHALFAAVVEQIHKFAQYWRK

[11] = Metabolic stability in mouse liver microsomes assessed as intrinsic clearance at 1 uM preincubated for 10 mins followed by NADPH addition and measured for 60 mins by LC-MS/MS analysis; assay type: ADME, Microsome; conditions: read-out: CLH
[12] = Half life in Sprague-Dawley rat at 5 mg/kg, po or 1 mg/kg, iv administered as single dose and measured for 24 hrs by LC-MS/MS analysis; assay type: ADME, organism-based; conditions: in vivo
Mus musculus = experiment: In vivo inhibition of STAT1 phosphorylation at S727 residue in BALB/c nude mouse xenografted with human MV4-11 cells assessed as reduction in p-STAT1 protein level administered orally by gavage twice per day for 17 days and measured 24 hrs post last dose by Western blot analysis; assay type: functional, organism-based; conditions: dose 1-10 mg/kg, route po, time 17.0 day
[13] = Bioavailability in Sprague-Dawley rat at 5 mg/kg, po or 1 mg/kg, iv administered as single dose and measured for 24 hrs by LC-MS/MS analysis; assay type: ADME, organism-based; conditions: in vivo
Cytochrome P450 1A2 = molecular target: T2, Cytochrome P450 1A2 (Homo sapiens, UniProt P05177); experiment: Inhibition of CYP1A2 in human liver microsomes using phenacetin as substrate assessed as reduction in substrate O-deethylation incubated for 10 mins in presence of NADPH by LC-MS/MS analysis; assay type: ADME, Microsome
T2 sequence (P05177 whole entry): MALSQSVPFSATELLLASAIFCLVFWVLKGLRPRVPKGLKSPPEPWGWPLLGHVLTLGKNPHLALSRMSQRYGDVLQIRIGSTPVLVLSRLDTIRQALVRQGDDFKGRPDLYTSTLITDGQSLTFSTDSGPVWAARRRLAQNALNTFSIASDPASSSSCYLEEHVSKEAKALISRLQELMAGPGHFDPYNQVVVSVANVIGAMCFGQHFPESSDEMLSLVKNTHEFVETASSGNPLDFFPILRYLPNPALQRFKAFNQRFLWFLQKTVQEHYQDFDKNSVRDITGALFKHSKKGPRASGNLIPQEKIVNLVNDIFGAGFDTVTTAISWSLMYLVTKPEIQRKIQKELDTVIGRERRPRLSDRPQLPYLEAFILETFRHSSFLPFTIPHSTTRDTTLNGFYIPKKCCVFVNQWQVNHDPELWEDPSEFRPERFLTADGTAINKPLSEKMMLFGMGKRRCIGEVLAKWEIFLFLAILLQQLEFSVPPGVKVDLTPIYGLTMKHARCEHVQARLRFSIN

[14] = Bioavailability in Beagle dog at 1 mg/kg, po or 0.5 mg/kg, iv administered as single dose and measured for 24 hrs by LC-MS/MS analysis; assay type: ADME, organism-based, Canis lupus familiaris; conditions: in vivo
[15] = Clearance in Beagle dog assessed as liver blood flow at 1 mg/kg, po or 0.5 mg/kg, iv administered as single dose and measured for 24 hrs by LC-MS/MS analysis; assay type: ADME, organism-based, Canis lupus familiaris; conditions: in vivo

## Cc1n[nH]c2ccc(-c3nnc(C)n3Cc3ccc(C(F)(F)F)cc3)cc12
Cytochrome P450 2C19
  IC50: 30.8 µM
[1]
  LBF: 27%
[2]
  Kd: 0.24 µM
[3]
  Kd: 0.068 µM
[4]
  LBF: 1.4%
MV4-11 [5]
  inhibition in vivo at 3 mg/kg: 84.8%
[6]
  inhibition: Dose-Dependent Effect
[7]
  inhibition in vivo at 1 mg/kg: 46.1%
MV4-11 [8]
  Activity: Active
MV4-11 [9]
  inhibition: Dose-Dependent Effect
[10]
  Kd: 4.2 µM
[11]
  CLint scaled at 1 µM: 148 mL/min/kg
[12]
  half-life: 3.9 h
Mus musculus
  inhibition: Dose-Dependent Effect
[13]
  bioavailability: 97.7%
Cytochrome P450 1A2
  IC50: > 50 µM
[14]
  bioavailability: 102%
[15]
  LBF: 7.2%
